Data from EP1733731A1, “New uses of Glycerol derivatives in particular in cosmetics” (AGRO INDUSTRIE RECHERCHES ET DEVELOPPEMENTS (A.R.D.), priority 2005, dated 2006).

Tested on: proMMP-3
Test: activation of proMMP-3 by plasmin in cultured dermal fibroblasts (western blot)
Format: cell-based
Details: 25 µg/mL; 2,5 µg/mL plasmin; Figure 1B-4
Procedure: • La Figure 1 représente la modulation de l'activation des proMMP-3 (Figures 1A et 1B) et proMMP-1 (Figure 1C) in vitro comme en culture par des extraits glycolipidiques du gluten de blé. • Figure 1A : 100 nM de proMMP-3 (Figure 1A-1) sont incubés avec 65 nM de plasmine en absence (Figure 1A-2) ou en présence de glycolipides (Figure 1A-3 et 4), à la concentration de 50µg/mL pour M1-Sucres (Figure 1A-3) et 25 µg/mL pour ED 23-11 (Figure 1A-4). • Figure 1B : des fibroblastes dermiques sont ensemencés en plaque 24 puits à raison de […] cellules par puits jusque confluence. Après une mise au repos de 18 heures, les cellules sont incubées en présence (Figure 1B-2, 3 et 4) ou non (Figure 1B-1) de 2,5 µg/mL de plasmine ainsi que des glycolipides M1(-Sucres) (Figure 1B-3) et ED 23-11 (Figure 1B-4) aux mêmes concentrations que précédemment. • Figure 1C : des fibroblastes dermiques sont ensemencés en plaque 24 puits à raison de […] cellules par puits jusque confluence. Après une mise au repos de 18 heures, les cellules sont incubées en présence (Figure 1C-2, 3 et 4) ou non (Figure 1C-1) de 2,5 µg/mL de plasmine ainsi que des glycolipides M1(-Sucres) (Figure 1C-3) et ED 23-11 (Figure 1C-4) aux mêmes concentrations que précédemment. Dans l'ensemble des figures 1A, 1B et 1C, la réaction est arrêtée aux temps indiqués par addition de 0,3 mg/ml d'aprotinine. […]

SMILES: CCCCC/C=C\C/C=C\CCCCCCCCOC[C@H](CO[C@@H]1O[C@H](COC(=O)CCCCCCCCCCCCCCC)[C@H](O)[C@H](O)[C@H]1O)OCCCCCCCC/C=C\C/C=C\CCCCC [ED23-11, 1,2-di-O-linoléyl-3-O-[6'-O-palmitoyl-β-D-galactopyranosyl]-sn-glycérol]
- activation de la proMMP-3: inhibition significative
